Experimental data reported in paper PMC10961089, “Epidermal growth factor receptor inhibition potentiates chemotherapeutics‐mediated sensitization of metastatic breast cancer stem cells” (Cancer Reports, 2024).

Key:
[1] = test system: CD24^−/CD44^+‐breast CSCs xenotransplanted tumors; test: Preclinical orthotopic xenograft murine tumor model (tumor size, weight, H&E histology); assay type: in vivo, C57BL/6 mice
Method: (§1) Animal studies have been carried out with the prior approval of the Institutional Animal Ethics Committee (IICT/IAEC/025/2023). C57BL/6 female mice of age 6–8 weeks (N = 35) were initially immunosuppressed with cyclophosphamide (50 mg/kg of body weight, i.p) on alternate days for 2 weeks. For generating a preclinical orthotopic xenograft tumor model, 2 × 10^6 GFP expressing sorted stable CD24^+‐breast cancer cells and CD24^−/CD44^+‐breast CSCs were orthotopically xeno‐transplanted subcutaneously at the fourth mammary fat pad of immune‐suppressed mice (n = 5/group). Subsequently, intratumoral administration of Doxorubicin at a low dose (2.5 mg/kg of body weight), high dose (10 mg/kg of body weight), and/or combinatorial treatment of the potent EGFR inhibitor, compound 1e (50 mg/kg of body weight) or the commercial EGFR inhibitor, PD153035 (50 mg/kg of body weight) with a low dose of doxorubicin was performed to the palpable tumors of breast CSCs at day‐3 post‐transplantation.
Euthanization of mice was performed on day 14 post‐transplantation and tumor tissues were collected for histological and immunohistochemical analysis. Histological differences in tumor tissues were evaluated using hematoxylin and eosin staining (H&E).[28], [30]

[2] = test system: human CD44, ALDH1A1, Fibronectin, N‐Cadherin, Vimentin in tumor tissue; test: qRT-PCR of human CSC/EMT genes in tumor tissues; assay type: in vivo, C57BL/6 mice; settings: with doxorubicin low dose vs low dose doxorubicin alone
Method: Additionally, total RNA was isolated from tumor tissues and utilized for cDNA synthesis (Thermo Scientific, Massachusetts, USA). To determine the transcriptional regulation of expression of EMT genes in tumor tissues subjected to various treatment regimes, quantitative real‐time PCR (qRT‐PCR) analysis was performed as described previously[28] using human gene‐specific forward and reverse primers of EMT genes. Amplification of Eukaryotic 18S rRNA served as an internal control and was utilized to calculate the fold change in expression.[29]
as §1

[3] = test system: Bax and Cytochrome‐C in MDA‐MB‐231 cells; test: Gene expression of apoptotic genes, semi-quantitative RT-PCR; assay type: cell-based, human; settings: MDA-MB-231, doxorubicin + compound 5 μM, 24 h
Method: Briefly, the cells were incubated at 37°C with serum starvation followed by culturing as described above. […] Briefly, the template RNA (1 μg) was utilized for cDNA synthesis using a First‐strand cDNA synthesis kit (Thermo Scientific, USA) according to the manufacturer's protocol. Thermal cycler (Mastercycler® nexus, Eppendorf) was used for the amplification of the expression of apoptotic genes—Bax, Bcl2, Cytochrome‐C, and target gene EGFR with the help of Dream Taq DNA Polymerase PCR Master Mix (Thermo Scientific, USA) along with human gene‐specific forward and reverse primer sequences of the apoptotic genes and EGFR (Table ST1). The expression of the target genes was normalized to the Eukaryotic 18S rRNA.

[4] = test system: CD44, p‐EGFR, p‐JNK, p‐p38 in tumor tissue; test: Immunohistochemical analysis of tumor tissue (colocalization with GFP, Pearson's correlation coefficient); assay type: in vivo, C57BL/6 mice
Method: as §1
Immunohistochemical analysis was performed by immunostaining the tissue serial sections with primary antibodies against GFP, CD44, p‐EGFR, p‐JNK, and p‐p38 (CST, USA) followed by alexafluor‐488/555 conjugated secondary antibodies (R&D systems, USA) and mounting medium containing DAPI.[28], [29] Images were captured using a confocal microscope (Olympus FV10i, Tokyo, Japan). Pearson's correlation coefficient was utilized to determine the co‐localization of GFP/CD44, GFP/p‐EGFR, GFP/p‐JNK, and GFP/p‐p38 (Table. ST3).

MDA‐MB‐468 [5] = test: Cell migration (chemotaxis), Boyden-Chamber assay; assay type: cell-based, human; settings: Doxorubicin 0.01 μM + compound 5 μM (PD153035 10 μM) vs 10% FBS and Doxorubicin alone
Method: (§2) TNBC cell lines—MDA‐MB‐231, MDA‐MB‐468, and the sorted CD24^+‐breast cancer cells, and CD24^−/CD44^+‐breast CSC populations from MDA‐MB‐231 [6] were seeded at a density of 1 × 10^6 cells/well to evaluate their migratory potential by Boyden‐Chamber assay. […] At the end of the treatment period, the cells were plated at a density of 5 × 10^3 cells/well in the upper chamber of the Boyden chamber assembly and 10% FBS in the lower chamber was used as a chemoattractant. Separately, the cells in the upper chamber were treated with Doxorubicin (0.01–0.1 μM) alone or with the potential EGFR inhibitors (compounds—1c, 1e, 1g, 1h, 1j, and 1k (5 μM) based on their low IC50 values) or a commercial EGFR inhibitor, PD153035 (10 μM) and incubated for 4 h followed by fixation and staining as described previously.[28], [29]

MDA‐MB‐231 [6] = test: Cell migration (chemotaxis), Boyden-Chamber assay; assay type: cell-based, human; settings: Doxorubicin 0.01 μM + compound 5 μM (PD153035 10 μM) vs 10% FBS and Doxorubicin alone
Method: as §2

MDA‐MB‐468 [7] = test system: MDA‐MB‐468; parameters: method as in PMID 28398698; settings: unit not printed in the sentence (Table 1 in μM); read-out: IC50 against MDA‐MB‐468; cited from earlier work
MDA‐MB‐231 [8] = test system: MDA‐MB‐231; parameters: method as in PMID 28398698; settings: unit not printed in the sentence (Table 1 in μM); read-out: IC50 against MDA‐MB‐231; cited from earlier work

COc1cc2ncnc(Nc3cccc(Br)c3)c2cc1OC [PD153035, reference compound]
tumorigenicity (H&E histology) ([1]; 50 mg/kg + low dose doxorubicin 2.5 mg/kg, CSC xenograft): significant decrease | histopathological finding in tumor tissue ([1]; 50 mg/kg + low dose doxorubicin 2.5 mg/kg, CSC xenograft, day 14): neoplastic mass in the dermal region which was completely necrosed and replaced with fibrous tissue | tumor size ([1]; intratumoral, 50 mg/kg + doxorubicin low dose 2.5 mg/kg vs low dose doxorubicin alone, CD24^−/CD44^+ CSC xenograft): significantly decreased | expression level of human CD44 in tumor tissue [2]: significantly decreased | expression of pro‐apoptotic genes Bax and Cytochrome‐C [3]: marked increase | colocalization of GFP/p‐EGFR ([4]; with doxorubicin low dose, CSC xenograft tumor tissue): decreased significantly | activation of apoptotic signaling mediators (GFP/p‐JNK, GFP/p‐p38 colocalization) ([4]; with low dose doxorubicin, comparable with high dose doxorubicin alone): increased activation | colocalization of GFP and CD44 (Pearson's correlation coefficient) ([4]; with low dose of doxorubicin, CSC xenograft tumor tissue): comparable to the high dose of doxorubicin treated group | migratory potential (MDA‐MB‐468 [5]): significant decrease | migratory potential (MDA‐MB‐231 [6]): significant decrease | IC50 (MDA‐MB‐468 [7]): 15.4 µM | IC50 (MDA‐MB‐231 [8]): 3.2 µM
